Assay results from ChEMBL document CHEMBL1201862, “PubChem BioAssay data set” (2004).
Values belong to the compound of their own block, whether it stands above or below them. Active and inactive are the calls of the source.

Columns and labels:
[1] = molecular target: T1, Short transient receptor potential channel 4 (Mus musculus, UniProt Q9QUQ5); assay: block of DAMGO-driven TRPC4 calcium entry – cell-based, HEK293 TRPC4/mu-opioid, Fluo-4 calcium, dose response (AID 434942); assay type: functional;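 further: potency of inhibitors blocking the TRPC4 calcium response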
T1 sequence (Q9QUQ5 whole entry): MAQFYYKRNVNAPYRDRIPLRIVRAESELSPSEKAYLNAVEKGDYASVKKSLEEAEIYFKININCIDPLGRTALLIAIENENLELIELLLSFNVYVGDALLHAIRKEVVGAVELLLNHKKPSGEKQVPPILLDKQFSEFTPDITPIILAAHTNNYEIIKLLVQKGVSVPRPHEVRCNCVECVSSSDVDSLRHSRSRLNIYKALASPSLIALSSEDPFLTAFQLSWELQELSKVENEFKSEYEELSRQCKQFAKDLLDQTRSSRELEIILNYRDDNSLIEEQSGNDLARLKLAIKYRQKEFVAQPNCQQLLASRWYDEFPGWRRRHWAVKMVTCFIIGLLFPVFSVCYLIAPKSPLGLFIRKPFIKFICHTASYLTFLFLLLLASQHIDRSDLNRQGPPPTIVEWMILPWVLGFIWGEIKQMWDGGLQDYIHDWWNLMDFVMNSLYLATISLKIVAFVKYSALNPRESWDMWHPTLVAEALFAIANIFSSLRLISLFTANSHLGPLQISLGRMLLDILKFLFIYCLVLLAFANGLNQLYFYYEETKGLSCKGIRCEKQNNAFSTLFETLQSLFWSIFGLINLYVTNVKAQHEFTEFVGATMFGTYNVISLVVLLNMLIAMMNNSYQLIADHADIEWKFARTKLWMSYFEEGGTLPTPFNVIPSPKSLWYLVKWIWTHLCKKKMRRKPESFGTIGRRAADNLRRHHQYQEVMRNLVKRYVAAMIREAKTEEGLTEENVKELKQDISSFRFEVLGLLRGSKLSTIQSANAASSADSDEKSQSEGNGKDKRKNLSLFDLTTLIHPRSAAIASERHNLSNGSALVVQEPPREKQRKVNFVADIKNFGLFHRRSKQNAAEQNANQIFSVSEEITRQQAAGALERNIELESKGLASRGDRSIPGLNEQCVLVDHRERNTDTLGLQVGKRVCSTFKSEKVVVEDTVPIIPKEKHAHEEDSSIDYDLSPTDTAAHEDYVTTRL

[2] = HEK-293T viability loss after treatment – luminescence, T-cell screen hits, cytotoxicity control for TCR NF-kB inhibitor project, dose response (AID 489026); assay type: functional, cell-based;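 further: cells exposed to compound about 14 hours before the viability readout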
[3] = molecular target: Voltage-dependent T-type calcium channel subunit alpha-1H (Homo sapiens, UniProt O95180); assay type: functional;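 further: channel activity triggered by adding a high calcium stimulation buffer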
Sequence of Voltage-dependent T-type calcium channel subunit alpha-1H (O95180 whole entry): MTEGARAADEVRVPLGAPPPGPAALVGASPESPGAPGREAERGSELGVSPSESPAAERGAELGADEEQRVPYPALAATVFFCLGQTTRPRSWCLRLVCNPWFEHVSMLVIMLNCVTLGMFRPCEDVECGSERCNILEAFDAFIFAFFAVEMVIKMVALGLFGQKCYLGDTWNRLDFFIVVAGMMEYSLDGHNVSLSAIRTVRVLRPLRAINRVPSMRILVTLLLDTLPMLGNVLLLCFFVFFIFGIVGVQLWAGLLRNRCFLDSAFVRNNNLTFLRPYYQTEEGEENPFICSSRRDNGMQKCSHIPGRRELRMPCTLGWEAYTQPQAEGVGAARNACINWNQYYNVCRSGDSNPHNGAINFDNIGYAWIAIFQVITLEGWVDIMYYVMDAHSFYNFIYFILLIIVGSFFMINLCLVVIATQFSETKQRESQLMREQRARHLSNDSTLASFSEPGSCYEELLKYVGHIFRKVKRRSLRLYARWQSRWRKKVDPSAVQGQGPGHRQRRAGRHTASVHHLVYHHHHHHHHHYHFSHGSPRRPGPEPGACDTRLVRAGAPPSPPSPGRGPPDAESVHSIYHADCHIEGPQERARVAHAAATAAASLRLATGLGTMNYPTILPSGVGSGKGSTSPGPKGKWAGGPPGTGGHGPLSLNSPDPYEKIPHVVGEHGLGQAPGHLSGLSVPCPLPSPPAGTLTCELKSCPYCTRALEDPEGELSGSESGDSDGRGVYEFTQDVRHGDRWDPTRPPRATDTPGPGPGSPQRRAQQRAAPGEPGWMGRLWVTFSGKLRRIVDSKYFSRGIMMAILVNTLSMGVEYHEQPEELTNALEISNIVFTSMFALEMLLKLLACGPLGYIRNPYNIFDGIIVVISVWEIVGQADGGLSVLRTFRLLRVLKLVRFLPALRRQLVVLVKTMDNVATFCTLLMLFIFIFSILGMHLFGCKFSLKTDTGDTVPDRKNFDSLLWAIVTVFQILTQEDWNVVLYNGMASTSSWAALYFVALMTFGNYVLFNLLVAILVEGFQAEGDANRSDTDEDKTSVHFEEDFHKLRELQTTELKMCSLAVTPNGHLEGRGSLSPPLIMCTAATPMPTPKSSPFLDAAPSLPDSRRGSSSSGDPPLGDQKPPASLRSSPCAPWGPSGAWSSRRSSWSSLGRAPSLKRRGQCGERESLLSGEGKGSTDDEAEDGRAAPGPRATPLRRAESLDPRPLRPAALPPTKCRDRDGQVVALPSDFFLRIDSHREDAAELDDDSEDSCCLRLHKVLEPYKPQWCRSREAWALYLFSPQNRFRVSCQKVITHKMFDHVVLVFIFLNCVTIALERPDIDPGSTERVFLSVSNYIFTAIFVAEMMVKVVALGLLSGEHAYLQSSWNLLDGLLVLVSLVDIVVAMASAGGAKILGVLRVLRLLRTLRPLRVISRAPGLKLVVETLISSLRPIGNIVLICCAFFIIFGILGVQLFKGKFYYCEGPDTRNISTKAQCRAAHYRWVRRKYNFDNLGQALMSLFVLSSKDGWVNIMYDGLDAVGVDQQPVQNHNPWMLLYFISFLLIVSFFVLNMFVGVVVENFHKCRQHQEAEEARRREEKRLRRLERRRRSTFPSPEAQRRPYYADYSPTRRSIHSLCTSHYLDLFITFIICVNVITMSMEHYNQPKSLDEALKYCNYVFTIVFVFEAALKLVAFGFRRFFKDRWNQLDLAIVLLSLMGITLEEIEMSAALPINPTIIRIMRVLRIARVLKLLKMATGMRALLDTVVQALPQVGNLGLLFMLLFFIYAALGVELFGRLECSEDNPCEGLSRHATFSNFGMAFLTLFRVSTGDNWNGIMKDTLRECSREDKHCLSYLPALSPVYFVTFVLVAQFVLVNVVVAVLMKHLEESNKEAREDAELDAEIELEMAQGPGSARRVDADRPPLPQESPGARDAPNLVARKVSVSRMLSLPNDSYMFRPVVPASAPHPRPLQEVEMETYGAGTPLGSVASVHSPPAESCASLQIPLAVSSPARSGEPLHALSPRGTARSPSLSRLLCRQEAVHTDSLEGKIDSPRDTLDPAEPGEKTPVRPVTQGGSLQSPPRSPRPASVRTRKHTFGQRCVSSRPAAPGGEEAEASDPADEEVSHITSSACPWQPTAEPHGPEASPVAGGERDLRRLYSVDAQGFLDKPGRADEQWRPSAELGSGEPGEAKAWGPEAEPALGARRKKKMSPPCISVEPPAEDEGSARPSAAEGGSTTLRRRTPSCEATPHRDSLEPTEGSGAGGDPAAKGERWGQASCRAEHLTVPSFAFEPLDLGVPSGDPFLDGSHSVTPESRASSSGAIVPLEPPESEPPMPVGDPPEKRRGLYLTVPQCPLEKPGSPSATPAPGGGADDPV

Cytochrome P450 2D6 = Cytochrome P450 2D6 (Homo sapiens, UniProt P10635);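 further: CYP2D6 member of a cytochrome P450 panel assay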
Sequence of Cytochrome P450 2D6 (P10635 whole entry): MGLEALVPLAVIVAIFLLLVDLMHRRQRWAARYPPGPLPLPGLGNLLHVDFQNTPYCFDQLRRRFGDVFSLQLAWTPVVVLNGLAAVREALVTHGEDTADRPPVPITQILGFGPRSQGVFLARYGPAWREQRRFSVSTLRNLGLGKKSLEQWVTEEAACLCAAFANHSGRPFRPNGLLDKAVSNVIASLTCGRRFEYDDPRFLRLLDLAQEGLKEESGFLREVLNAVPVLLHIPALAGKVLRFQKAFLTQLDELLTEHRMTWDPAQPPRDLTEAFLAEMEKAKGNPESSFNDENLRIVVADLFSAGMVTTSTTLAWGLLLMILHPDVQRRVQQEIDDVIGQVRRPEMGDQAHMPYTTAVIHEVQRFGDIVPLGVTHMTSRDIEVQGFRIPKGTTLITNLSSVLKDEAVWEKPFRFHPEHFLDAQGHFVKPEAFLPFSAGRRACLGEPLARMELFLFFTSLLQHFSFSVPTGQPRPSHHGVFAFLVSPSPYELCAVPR

Aminopeptidase N = molecular target: T2, Aminopeptidase N (Plasmodium falciparum FcB1/Columbia, UniProt O96935); assay: malaria alanyl aminopeptidase activity blockers – biochemical, fluorogenic H-Leu-NHMec substrate, 1536-well (AID 1445); design: species or system Plasmodium falciparum 3D7, 3D7
T2 sequence (O96935 whole entry): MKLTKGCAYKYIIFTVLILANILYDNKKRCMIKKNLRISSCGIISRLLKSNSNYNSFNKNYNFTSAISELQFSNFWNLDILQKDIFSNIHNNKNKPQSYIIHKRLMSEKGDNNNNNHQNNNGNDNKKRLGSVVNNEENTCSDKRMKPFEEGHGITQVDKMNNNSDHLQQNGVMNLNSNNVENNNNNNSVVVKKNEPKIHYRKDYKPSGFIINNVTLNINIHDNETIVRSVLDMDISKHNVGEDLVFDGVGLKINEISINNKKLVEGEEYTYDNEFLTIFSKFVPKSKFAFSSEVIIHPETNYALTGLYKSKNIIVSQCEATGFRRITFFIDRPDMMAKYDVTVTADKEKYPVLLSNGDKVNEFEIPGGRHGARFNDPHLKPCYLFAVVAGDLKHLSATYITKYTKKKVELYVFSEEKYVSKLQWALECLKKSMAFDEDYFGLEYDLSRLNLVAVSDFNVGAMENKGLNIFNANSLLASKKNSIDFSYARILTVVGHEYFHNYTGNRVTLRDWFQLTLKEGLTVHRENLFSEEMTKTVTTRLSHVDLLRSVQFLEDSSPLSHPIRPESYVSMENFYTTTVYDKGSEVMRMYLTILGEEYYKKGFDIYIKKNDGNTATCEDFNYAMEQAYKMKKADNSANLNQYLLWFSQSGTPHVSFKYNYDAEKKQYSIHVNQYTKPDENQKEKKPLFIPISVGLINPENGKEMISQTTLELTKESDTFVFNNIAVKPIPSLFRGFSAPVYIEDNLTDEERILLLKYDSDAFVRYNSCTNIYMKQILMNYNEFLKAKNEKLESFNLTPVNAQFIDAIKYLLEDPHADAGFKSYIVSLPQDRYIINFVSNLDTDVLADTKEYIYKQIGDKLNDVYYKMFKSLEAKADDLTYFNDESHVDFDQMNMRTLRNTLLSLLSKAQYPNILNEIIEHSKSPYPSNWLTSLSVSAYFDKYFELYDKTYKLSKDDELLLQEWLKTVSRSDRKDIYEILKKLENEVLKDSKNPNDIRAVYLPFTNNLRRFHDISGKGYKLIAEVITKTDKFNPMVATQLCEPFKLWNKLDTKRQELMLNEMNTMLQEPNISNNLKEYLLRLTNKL

INS1 = assay: INS-1E survival protection against cytokine death – cell-based, luminescence, retest, dose response (AID 449756); assay type: functional; settings: Rattus norvegicus, INS1;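 further: cell death triggered by IL-1 beta plus TNF-alpha plus IFN-gamma mixture; protective hits raise ATP signal compared with cytokine alone wells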
Cytochrome P450 1A2 = molecular target: T3, Cytochrome P450 1A2 (Homo sapiens, UniProt P05177);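 further: PubChem cytochrome P450 panel assay, CYP1A2 panel member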
T3 sequence (P05177 whole entry): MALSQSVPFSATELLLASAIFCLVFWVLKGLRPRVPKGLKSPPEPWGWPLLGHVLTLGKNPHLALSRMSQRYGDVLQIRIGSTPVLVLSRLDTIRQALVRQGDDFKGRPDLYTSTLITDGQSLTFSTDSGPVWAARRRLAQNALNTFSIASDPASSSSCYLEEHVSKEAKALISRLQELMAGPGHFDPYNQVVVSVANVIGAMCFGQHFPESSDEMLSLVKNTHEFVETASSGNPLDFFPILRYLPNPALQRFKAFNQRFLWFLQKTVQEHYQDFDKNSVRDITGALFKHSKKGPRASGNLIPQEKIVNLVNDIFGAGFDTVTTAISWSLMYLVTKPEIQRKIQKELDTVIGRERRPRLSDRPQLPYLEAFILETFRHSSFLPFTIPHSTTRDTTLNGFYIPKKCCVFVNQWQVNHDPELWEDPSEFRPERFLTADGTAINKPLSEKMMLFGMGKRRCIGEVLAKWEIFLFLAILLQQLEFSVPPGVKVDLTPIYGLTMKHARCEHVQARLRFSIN

[4] = reduction of Shn3 3'UTR-driven luciferase in osteoblasts – cell-based, Clone20 osteoblasts, firefly luciferase, cherry-picked, dose response (AID 624132); assay type: functional;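 further: firefly luciferase luminescence from reporter carrying the Shn3 3'UTR in osteoblasts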
[5] = loss of viability in HepG2 cells – cell-based, CellTiter-Glo, cherry-picked, cytotoxicity control for Shn3 inhibitor project, dose response (AID 624134); assay type: functional
[6] = non-specific 3'UTR reporter inhibition in Clone20-Shn3RL – cell-based, Renilla luciferase, cherry-picked, counter-screen for Shn3 inhibitor project, dose response (AID 624133); assay type: functional
[7] = molecular target: T4, Microphthalmia-associated transcription factor (Homo sapiens, UniProt O75030); assay: reducers of TRPM1 reporter luminescence, concentration series – cell-based, SK-MEL-5, cherry-picked, set 3, MITF inhibitor project, dose response (AID 493073); assay type: functional;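 further: SK-MEL-5 melanoma cells with luciferase driven by the MITF target TRPM1 promoter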
T4 sequence (O75030 whole entry): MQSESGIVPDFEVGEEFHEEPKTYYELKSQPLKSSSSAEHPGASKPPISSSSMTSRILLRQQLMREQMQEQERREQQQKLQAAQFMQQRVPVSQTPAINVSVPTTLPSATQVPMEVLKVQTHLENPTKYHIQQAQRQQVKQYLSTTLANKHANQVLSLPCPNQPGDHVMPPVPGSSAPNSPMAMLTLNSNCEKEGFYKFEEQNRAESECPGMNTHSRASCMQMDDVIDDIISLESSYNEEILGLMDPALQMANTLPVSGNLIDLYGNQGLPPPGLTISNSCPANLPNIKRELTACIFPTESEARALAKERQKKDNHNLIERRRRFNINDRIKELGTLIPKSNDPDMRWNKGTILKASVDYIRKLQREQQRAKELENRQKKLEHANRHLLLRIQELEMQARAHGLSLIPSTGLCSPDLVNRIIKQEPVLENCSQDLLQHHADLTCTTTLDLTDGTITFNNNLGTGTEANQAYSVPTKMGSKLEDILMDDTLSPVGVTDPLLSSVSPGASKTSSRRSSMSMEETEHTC

EC50 [1]: 0.596 µM (active)
Compound: c1ccc(Cn2c(NCc3ccco3)nc3ccccc32)cc1

EC50 [3]: 8.67 µM (active) | AC50 (Cytochrome P450 2D6): 20 µM (inconclusive)
Compound: COc1cccc(N(C(=O)Cn2nnc(-c3ccc(C)cc3)n2)C(C(=O)NC(C)(C)C)c2c[nH]c3ccccc23)c1 (stereo not drawn)

IC50 (Aminopeptidase N): 44.6 µM (active)
Compound: Cc1ccc(-c2csc3ncnc(SCc4ccc(C(=O)O)cc4)c23)cc1

EC50 [3]: 7.3 µM (active) | AC50 (Cytochrome P450 1A2): 22.4 µM (inconclusive)
Compound: COc1ccc(CNc2nc3ccccc3n2Cc2ccccc2)cc1OC

EC50 [3]: 3.26 µM (active)
Compound: Cc1cc(C)c(NC(=O)C(C)c2cccc(C(=O)c3ccccc3)c2)c(C)c1 (stereo not drawn)

The remaining lines, values behind:

Compound: O=C(CN1CCCCCC1)N1c2ccccc2Sc2ccccc21
EC50 [1]: 1.68 µM (active)

Compound: COc1cc(C2=NOC(C(=O)NCc3ccc(F)cc3)C2)cc(OC)c1OC (stereo not drawn)
IC50 [2]: > 80 µM (inactive)

Compound: COc1ccc(CC(=O)Nc2nc(-c3ccc(F)c(F)c3)cs2)cc1OC
IC50 [2]: 51.3 µM (inactive) | AC50 (INS1): 6.65 µM (active)

Compound: COc1ccc(CN(C(=O)c2snc(C(N)=O)c2N)C(CC(C)C)C(=O)NC2CCCCC2)cc1 (stereo not drawn)
EC50 [1]: 1.33 µM (active)

Compound: CC1(C)CC(=O)c2c(oc3ccc(NS(=O)(=O)c4ccc(C(=O)O)cc4)cc23)C1
IC50 (Aminopeptidase N): 26 µM (active)

Compound: Cc1ccc(N(C)S(=O)(=O)c2ccc(-c3cnc(C4CC4)o3)cc2)cc1
IC50 [2]: > 80 µM (inactive)

Compound: O=C1CCCN2N=C(SCC(=O)Nc3cccc(C(F)(F)F)c3)SC2=N1
AC50 [4]: 4.37 µM (active) | AC50 [5]: 5.46 µM (active) | AC50 [6]: 2.95 µM (active)

Compound: Cc1ccc(C(O)(c2ccc(C)c(C)c2)C2CN3CCC2CC3)cc1C (stereo not drawn)
AC50 [7]: 10.1 µM (active)
